# Literature values in patent publication US20260284018A1, “DUAL INHIBITORS OF DYRK1A AND 5-HT2 FOR TREATING A BRAIN DISORDER” (THE REGENTS OF THE UNIVERSITY OF CALIFORNIA, priority 2023, published 2026).
# Experiments:
# Settings in all cases: 10 μM; cited from earlier work
# PAK2 = target: T1, PAK2 (Homo sapiens, UniProt Q13177)
# T1 construct: purchased Eurofins DiscoverX (KINOMEscan scanEDGE service)
# ERK1 = target: T2, ERK1 (Homo sapiens, UniProt P27361)
# T2 construct: purchased Eurofins DiscoverX
# p38-alpha = target: T3, p38-alpha (Homo sapiens, UniProt Q16539)
# T3 construct: purchased Eurofins DiscoverX (KINOMEscan scanEDGE service)
# PDGFRA = target: T4, PDGFRA (Homo sapiens, UniProt P16234)
# T4 construct: purchased Eurofins DiscoverX (KINOMEscan scanEDGE service)
# TSSK1B = target: T5, TSSK1B (Homo sapiens, UniProt Q9BXA7)
# T5 construct: purchased Eurofins DiscoverX KINOMEscan scanEDGE
# BRAF(V600E) = target: T6, BRAF(V600E) (Homo sapiens, UniProt P15056, V600E)
# T6 construct: purchased Eurofins DiscoverX
# CDK7 = target: T7, CDK7 (Homo sapiens, UniProt P50613)
# T7 construct: purchased Eurofins DiscoverX
# IKK-beta = target: T8, IKK-beta (Homo sapiens, UniProt O14920)
# T8 construct: purchased Eurofins DiscoverX
# MLK1 = target: T9, MLK1 (Homo sapiens, UniProt P80192)
# T9 construct: purchased Eurofins DiscoverX (KINOMEscan scanEDGE service)
# EGFR(L858R) = target: T10, EGFR(L858R) (Homo sapiens, UniProt P00533, L858R)
# T10 construct: purchased Eurofins DiscoverX
# CDK3 = target: T11, CDK3 (Homo sapiens, UniProt Q00526)
# T11 construct: purchased Eurofins DiscoverX
# IGF1R = target: T12, IGF1R (Homo sapiens, UniProt P08069)
# T12 construct: purchased Eurofins DiscoverX
# T12 sequence (P08069 31-1367): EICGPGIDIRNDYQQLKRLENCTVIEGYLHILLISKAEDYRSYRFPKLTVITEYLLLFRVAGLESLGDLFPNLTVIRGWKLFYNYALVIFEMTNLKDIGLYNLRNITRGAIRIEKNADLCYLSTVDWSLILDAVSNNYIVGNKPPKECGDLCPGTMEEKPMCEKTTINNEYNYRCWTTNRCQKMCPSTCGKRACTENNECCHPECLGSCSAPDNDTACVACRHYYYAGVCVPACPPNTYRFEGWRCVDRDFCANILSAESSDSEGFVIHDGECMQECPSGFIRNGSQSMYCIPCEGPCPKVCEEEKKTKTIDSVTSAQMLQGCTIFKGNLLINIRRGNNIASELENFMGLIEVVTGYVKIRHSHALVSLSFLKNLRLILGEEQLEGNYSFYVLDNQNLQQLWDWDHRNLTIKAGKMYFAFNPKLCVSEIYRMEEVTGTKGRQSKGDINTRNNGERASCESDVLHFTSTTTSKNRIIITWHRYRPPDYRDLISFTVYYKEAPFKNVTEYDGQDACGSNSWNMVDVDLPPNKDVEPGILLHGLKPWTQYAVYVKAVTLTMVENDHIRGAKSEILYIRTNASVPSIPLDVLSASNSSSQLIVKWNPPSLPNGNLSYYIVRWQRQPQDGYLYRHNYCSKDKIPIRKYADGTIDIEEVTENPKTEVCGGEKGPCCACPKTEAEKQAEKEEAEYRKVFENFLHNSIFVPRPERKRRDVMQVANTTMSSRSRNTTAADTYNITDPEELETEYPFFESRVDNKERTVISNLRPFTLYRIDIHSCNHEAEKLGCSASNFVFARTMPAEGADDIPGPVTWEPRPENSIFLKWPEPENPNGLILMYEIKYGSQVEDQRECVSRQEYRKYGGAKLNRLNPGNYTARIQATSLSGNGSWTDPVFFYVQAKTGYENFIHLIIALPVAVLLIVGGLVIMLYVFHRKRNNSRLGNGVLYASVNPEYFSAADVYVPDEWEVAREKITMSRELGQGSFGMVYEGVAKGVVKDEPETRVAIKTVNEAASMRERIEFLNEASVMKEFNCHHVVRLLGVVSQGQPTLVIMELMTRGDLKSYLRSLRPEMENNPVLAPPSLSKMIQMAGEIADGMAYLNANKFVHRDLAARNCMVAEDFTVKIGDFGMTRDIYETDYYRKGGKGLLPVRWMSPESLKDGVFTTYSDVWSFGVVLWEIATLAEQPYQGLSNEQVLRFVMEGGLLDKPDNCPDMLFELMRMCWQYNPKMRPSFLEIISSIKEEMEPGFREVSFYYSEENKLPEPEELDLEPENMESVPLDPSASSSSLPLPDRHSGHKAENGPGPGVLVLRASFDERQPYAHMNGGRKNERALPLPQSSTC
# JNK1 = target: T13, JNK1 (Homo sapiens, UniProt P45983)
# T13 construct: purchased Eurofins DiscoverX
# MKNK2 = target: T14, MKNK2 (Homo sapiens, UniProt Q9HBH9)
# T14 construct: purchased Eurofins DiscoverX (KINOMEscan scanEDGE service)
# ABL1-phosphorylated = target: T15, ABL1-phosphorylated (Homo sapiens, UniProt P00519)
# T15 construct: purchased Eurofins DiscoverX
# PIM2 = target: T16, PIM2 (Homo sapiens, UniProt Q9P1W9)
# T16 construct: purchased Eurofins DiscoverX (KINOMEscan scanEDGE service)
# DYRK1B = target: T17, DYRK1B (Homo sapiens, UniProt Q9Y463)
# T17 construct: purchased Eurofins DiscoverX
# T17 sequence (Q9Y463 whole entry): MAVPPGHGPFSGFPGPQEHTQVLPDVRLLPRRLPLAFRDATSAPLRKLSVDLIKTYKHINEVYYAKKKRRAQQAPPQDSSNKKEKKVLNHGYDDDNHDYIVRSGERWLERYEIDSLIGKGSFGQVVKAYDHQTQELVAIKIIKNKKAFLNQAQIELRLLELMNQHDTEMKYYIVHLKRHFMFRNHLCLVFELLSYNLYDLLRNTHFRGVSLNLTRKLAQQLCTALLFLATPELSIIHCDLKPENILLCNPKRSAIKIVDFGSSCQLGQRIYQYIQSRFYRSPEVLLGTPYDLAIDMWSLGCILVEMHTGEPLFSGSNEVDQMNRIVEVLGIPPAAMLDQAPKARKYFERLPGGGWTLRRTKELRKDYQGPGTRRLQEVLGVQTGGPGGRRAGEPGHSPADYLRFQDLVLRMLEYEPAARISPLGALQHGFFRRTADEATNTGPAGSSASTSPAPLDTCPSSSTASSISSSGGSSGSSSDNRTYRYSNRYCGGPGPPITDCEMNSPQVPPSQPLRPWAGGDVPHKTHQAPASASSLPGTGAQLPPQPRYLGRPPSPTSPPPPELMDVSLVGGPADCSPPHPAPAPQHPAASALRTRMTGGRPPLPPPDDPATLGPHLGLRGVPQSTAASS
# RAF1 = target: T18, RAF1 (Homo sapiens, UniProt P04049)
# T18 construct: purchased Eurofins DiscoverX KINOMEscan scanEDGE
# T18 sequence (P04049 whole entry): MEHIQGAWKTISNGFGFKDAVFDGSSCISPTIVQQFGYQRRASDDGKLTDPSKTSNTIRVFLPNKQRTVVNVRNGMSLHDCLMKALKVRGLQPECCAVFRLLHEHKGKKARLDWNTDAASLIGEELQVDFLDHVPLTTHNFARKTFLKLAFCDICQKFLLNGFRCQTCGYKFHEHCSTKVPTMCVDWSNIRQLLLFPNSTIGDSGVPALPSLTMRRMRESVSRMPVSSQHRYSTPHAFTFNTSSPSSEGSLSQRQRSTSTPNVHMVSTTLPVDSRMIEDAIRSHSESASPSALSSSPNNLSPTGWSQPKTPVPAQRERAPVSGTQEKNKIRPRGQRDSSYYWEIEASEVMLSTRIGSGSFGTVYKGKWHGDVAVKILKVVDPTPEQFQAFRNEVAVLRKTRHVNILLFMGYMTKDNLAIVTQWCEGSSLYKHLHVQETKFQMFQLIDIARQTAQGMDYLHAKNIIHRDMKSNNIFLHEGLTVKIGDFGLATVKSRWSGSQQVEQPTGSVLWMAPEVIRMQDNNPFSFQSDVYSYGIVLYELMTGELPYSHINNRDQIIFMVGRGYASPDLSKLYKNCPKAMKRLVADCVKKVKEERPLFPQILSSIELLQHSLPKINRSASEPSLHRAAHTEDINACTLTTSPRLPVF
# SNARK = target: T19, SNARK (Homo sapiens, UniProt Q9H093)
# T19 construct: purchased Eurofins DiscoverX KINOMEscan scanEDGE
# PIM3 = target: T20, PIM3 (Homo sapiens, UniProt Q86V86)
# T20 construct: purchased Eurofins DiscoverX (KINOMEscan scanEDGE service)
# MKNK1 = target: T21, MKNK1 (Homo sapiens, UniProt Q9BUB5)
# T21 construct: purchased Eurofins DiscoverX (KINOMEscan scanEDGE service)
# ROCK2 = target: T22, ROCK2 (Homo sapiens, UniProt O75116)
# T22 construct: purchased Eurofins DiscoverX KINOMEscan scanEDGE
# CSF1R = target: T23, CSF1R (Homo sapiens, UniProt P07333)
# T23 construct: purchased Eurofins DiscoverX
# AKT1 = target: T24, AKT1 (Homo sapiens, UniProt P31749)
# T24 construct: purchased Eurofins DiscoverX
# T24 sequence (P31749 whole entry): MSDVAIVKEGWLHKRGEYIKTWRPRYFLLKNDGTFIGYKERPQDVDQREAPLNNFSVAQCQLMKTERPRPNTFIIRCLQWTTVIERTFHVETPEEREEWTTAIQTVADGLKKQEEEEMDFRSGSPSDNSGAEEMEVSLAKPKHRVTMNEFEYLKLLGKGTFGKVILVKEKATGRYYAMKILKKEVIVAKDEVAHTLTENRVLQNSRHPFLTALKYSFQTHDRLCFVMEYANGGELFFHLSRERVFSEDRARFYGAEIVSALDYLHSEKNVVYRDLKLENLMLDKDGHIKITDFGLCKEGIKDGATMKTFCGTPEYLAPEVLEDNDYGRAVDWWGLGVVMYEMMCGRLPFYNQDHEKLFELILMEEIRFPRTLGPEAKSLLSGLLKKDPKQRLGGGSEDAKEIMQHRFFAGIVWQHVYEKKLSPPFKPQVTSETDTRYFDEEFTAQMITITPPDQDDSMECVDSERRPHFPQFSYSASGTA
# PAK1 = target: T25, PAK1 (Homo sapiens, UniProt Q13153)
# T25 construct: purchased Eurofins DiscoverX (KINOMEscan scanEDGE service)
# T25 sequence (Q13153 whole entry): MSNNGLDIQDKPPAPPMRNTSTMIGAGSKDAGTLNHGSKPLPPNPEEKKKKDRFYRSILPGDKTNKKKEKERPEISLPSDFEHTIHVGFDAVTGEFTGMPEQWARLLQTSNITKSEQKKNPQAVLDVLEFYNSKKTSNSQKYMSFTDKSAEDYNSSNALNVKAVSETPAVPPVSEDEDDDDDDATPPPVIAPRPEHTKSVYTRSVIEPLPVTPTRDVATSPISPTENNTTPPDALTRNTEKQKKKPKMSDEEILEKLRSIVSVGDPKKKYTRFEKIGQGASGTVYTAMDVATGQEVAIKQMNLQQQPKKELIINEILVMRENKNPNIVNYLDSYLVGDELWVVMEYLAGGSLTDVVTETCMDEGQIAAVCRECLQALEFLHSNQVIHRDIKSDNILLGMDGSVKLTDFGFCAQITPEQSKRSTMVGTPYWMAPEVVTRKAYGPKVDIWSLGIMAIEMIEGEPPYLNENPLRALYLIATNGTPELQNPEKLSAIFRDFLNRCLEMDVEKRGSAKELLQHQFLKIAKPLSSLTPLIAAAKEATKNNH
# KIT(V559D, T670I) = target: T26, KIT(V559D, T670I) (Homo sapiens, UniProt P10721, T670I/V559D)
# T26 construct: purchased Eurofins DiscoverX
# ACVR1B = target: T27, ACVR1B (Homo sapiens, UniProt P36896)
# T27 construct: purchased Eurofins DiscoverX
# ULK2 = target: T28, ULK2 (Homo sapiens, UniProt Q8IYT8)
# T28 construct: purchased Eurofins DiscoverX KINOMEscan scanEDGE
# [1] = target: T29, JAK3(JH1domain-catalytic) (Homo sapiens, UniProt P52333)
# T29 construct: JAK3(JH1domain-catalytic); purchased Eurofins DiscoverX
# AKT2 = target: T30, AKT2 (Homo sapiens, UniProt P31751)
# T30 construct: purchased Eurofins DiscoverX
# VEGFR2 = target: T31, VEGFR2 (Homo sapiens, UniProt P35968)
# T31 construct: purchased Eurofins DiscoverX KINOMEscan scanEDGE
# BMPR2 = target: T32, BMPR2 (Homo sapiens, UniProt Q13873)
# T32 construct: purchased Eurofins DiscoverX
# T32 sequence (Q13873 27-1038): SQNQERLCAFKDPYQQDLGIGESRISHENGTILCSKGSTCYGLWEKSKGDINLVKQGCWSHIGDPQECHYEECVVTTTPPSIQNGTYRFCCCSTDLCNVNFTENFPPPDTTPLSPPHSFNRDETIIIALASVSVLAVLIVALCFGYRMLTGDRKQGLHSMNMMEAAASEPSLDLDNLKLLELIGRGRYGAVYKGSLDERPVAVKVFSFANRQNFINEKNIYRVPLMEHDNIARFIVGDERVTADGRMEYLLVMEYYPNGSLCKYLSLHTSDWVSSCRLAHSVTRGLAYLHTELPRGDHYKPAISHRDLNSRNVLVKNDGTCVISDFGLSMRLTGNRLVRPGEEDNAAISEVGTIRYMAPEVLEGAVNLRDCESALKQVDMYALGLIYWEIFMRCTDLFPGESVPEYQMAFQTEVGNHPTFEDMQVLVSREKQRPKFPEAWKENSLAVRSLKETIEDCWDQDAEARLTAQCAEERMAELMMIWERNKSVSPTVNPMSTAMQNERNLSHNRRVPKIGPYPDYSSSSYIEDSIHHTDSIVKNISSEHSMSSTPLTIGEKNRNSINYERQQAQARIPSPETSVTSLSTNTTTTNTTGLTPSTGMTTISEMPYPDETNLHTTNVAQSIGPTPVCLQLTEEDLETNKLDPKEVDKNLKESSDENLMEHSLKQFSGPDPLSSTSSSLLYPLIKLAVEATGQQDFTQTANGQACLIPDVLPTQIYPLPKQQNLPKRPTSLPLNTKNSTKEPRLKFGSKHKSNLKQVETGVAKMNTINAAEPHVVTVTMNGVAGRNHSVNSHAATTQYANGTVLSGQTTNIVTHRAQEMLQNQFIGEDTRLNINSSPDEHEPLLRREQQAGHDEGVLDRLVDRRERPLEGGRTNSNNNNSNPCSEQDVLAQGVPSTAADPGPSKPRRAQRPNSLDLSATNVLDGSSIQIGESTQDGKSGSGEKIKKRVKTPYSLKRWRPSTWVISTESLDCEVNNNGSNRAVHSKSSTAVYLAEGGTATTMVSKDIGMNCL
# ABL1-nonphosphorylated = target: T33, ABL1-nonphosphorylated (Homo sapiens, UniProt P00519)
# T33 construct: purchased Eurofins DiscoverX
# ADCK3 = target: T34, ADCK3 (Homo sapiens, UniProt Q8NI60)
# T34 construct: purchased Eurofins DiscoverX
# FLT3 = target: T35, FLT3 (Homo sapiens, UniProt P36888)
# T35 construct: purchased Eurofins DiscoverX
# AURKB = target: T36, AURKB (Homo sapiens, UniProt Q96GD4)
# T36 construct: purchased Eurofins DiscoverX
# T36 sequence (Q96GD4 whole entry): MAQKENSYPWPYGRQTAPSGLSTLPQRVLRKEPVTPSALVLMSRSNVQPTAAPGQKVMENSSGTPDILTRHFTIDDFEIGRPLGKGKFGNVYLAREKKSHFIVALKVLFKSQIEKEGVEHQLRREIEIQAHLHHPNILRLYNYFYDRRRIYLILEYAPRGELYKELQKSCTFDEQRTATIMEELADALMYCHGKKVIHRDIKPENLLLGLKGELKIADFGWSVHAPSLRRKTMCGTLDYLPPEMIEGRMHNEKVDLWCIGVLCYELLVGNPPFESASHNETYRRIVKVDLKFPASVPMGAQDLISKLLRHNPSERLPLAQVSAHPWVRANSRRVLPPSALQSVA
# PAK4 = target: T37, PAK4 (Homo sapiens, UniProt O96013)
# T37 construct: purchased Eurofins DiscoverX (KINOMEscan scanEDGE service)
# IKK-alpha = target: T38, IKK-alpha (Homo sapiens, UniProt O15111)
# T38 construct: purchased Eurofins DiscoverX
# PRKCE = target: T39, PRKCE (Homo sapiens, UniProt Q02156)
# T39 construct: purchased Eurofins DiscoverX KINOMEscan scanEDGE
# PLK4 = target: T40, PLK4 (Homo sapiens, UniProt O00444)
# T40 construct: purchased Eurofins DiscoverX KINOMEscan scanEDGE
smiles,measurement,setting,value
"COc1ccc2c(c1)[nH]c1c(C)nccc12 [Harmine, harmine]",Percent Control,PAK2,47%
same,Percent Control,ERK1,99%
same,Percent Control,p38-alpha,95%
same,Percent Control,PDGFRA,90%
same,Percent Control,TSSK1B,100%
same,Percent Control,BRAF(V600E),90%
same,Percent Control,CDK7,21%
same,Percent Control,IKK-beta,95%
same,Percent Control,MLK1,100%
same,Percent Control,EGFR(L858R),81%
same,Percent Control,CDK3,100%
same,Percent Control,IGF1R,100%
same,Percent Control,JNK1,41%
same,Percent Control,MKNK2,22%
same,Percent Control,ABL1-phosphorylated,100%
same,Percent Control,PIM2,39%
same,Percent Control,DYRK1B,6.1%
same,Percent Control,RAF1,89%
same,Percent Control,SNARK,95%
same,Percent Control,PIM3,43%
same,Percent Control,MKNK1,79%
same,Percent Control,ROCK2,43%
same,Percent Control,CSF1R,88%
same,Percent Control,AKT1,96%
same,Percent Control,PAK1,73%
same,Percent Control,"KIT(V559D, T670I)",92%
same,Percent Control,ACVR1B,91%
same,Percent Control,ULK2,89%
same,Percent Control,[1],61%
same,Percent Control,AKT2,80%
same,Percent Control,VEGFR2,78%
same,Percent Control,BMPR2,96%
same,Percent Control,ABL1-nonphosphorylated,90%
same,Percent Control,ADCK3,88%
same,Percent Control,FLT3,85%
same,Percent Control,AURKB,80%
same,Percent Control,PAK4,76%
same,Percent Control,IKK-alpha,81%
same,Percent Control,PRKCE,91%
same,Percent Control,PLK4,77%
